Data: US20050124683A1, “HIV protease inhibitors, compositions containing the same, their pharmaceutical uses and materials for their synthesis” (priority 2003, published 2005)
pEC50, pKi: −log10 of the molar value. Read-outs that look alike come from different tables or passages of the source.

Tests used:
[1] = target: T1, HIV-1 protease (Human immunodeficiency virus type 1 group M subtype B, UniProt P04585, Q495S); assay: HIV-1 Protease RET assay (Ki, resonance energy transfer); format: biochemical; conditions: Q7S mutant HIV-1 protease
T1 construct: made in house
Procedure: Ki's for the inhibitors of HIV-1 protease were determined using a resonance energy transfer (RET) assay. […] This enzyme is first partially purified as inclusion bodies from cell lysate. It is then solublized in 8M urea and passed through a Q-Sepharose column (Pharmacia) for further purification. To refold this protein, samples containing Q7S is dialyzed into 50 mM sodium phosphate pH 7.0, 50 mM NaCl, 10 mM DTT, and 10% glycerol.
The commercially available peptide substrate (Molecular Probes Cat. # H-2930) RE(EDANS)SQNYPIVQK(DABCYL)R is used to assess activity and Ki's. This peptide is cleaved quantitatively by HIV-1 Pr at the Tyr-Pro bond. The EDANS fluorophore absorbs at 340 nm and emits at 490 nm. The reaction is carried out in a 96 well plate in a total volume of 100 µL and is run for 12 minutes at 37C under steady-state conditions with 5 µM substrate and 2 nM active dimer enzyme concentration. The literature value Km for this substrate and enzyme is 103+/−8 μM (See Matayoshi, et al., “Novel Fluorogenic Substrates for Assaying Retroviral Proteases by Resonance Energy Transfer,” Science 247, 954 (1990)). The buffer for this reaction is 0.1M sodium acetate pH 4.8, 1M NaCl, 1 mM EDTA, 5 mM dithiothreitol, 10% dimethyl sulfoxide and 1 mg/ml bovine serum albumin. Inhibition curves are fit using the Morrison tight binding equation.

[2] = system: HIV-1; assay: Antiviral EC50 in HIV-infected T-cell lines (CPE inhibition / susceptibility assays); format: cell-based
Procedure: T-cell lines, CEM-SS, and MT-2, and viruses HIV-1 RF and HIV-1 NL4-3 (pNL4-3) were obtained from the National Institutes of Health (AIDS Research and Reference Reagent Program, Bethesda, MD).
The ability of compounds to protect cells against HIV infection was measured by the […] dye reduction method, essentially as described (See Pauwels, R. Balzarini, J. Baba, M. Snoeck, R. Schols, D. Herdewijn, P. Desmyter, J. and De Clercq, E. 1988, “Rapid and automated tetrazolium-based colorimetric assay for the detection of anti-HIV compounds,”. J Virol. Methods., 20: 309-321 and Weislow, O. S. Kiser, R. Fine, D. L. Bader, J. Shoemaker, R. H. and Boyd, M. R. 1989. “New soluble-formazan assay for HIV-1 cytopathic effects: application to high-flux screening of synthetic and natural products for AIDS-antiviral activity”. J. Natl. Cancer Inst. 81:577-586). Subject cells were infected with test virus at an moi of 0.025 to 0.819 or mock infected with medium only and added at 2×10^4 cells per well into 96 well plates containing half-log dilutions of test compounds. Six days later, 50 μl of XTT (1 mg/ml XTT tetrazolium, […] phenazine methosulfate) was added to the wells and the plate was reincubated for four hours. Viability, as determined by the amount of XTT formazan produced, was quantified spectrophotometrically by absorbance at 450 nm. Data from CPE assays were expressed as the percent of formazan produced in compound-treated cells compared to formazan produced in wells of uninfected, compound-free cells. The fifty percent effective concentration (EC50) was calculated as the concentration of compound that effected an increase in the percentage of formazan production in infected, compound-treated cells to 50% of that produced by uninfected, compound-free cells. The 50% cytotoxicity concentration (CC50) was calculated as the concentration of compound that decreased the percentage of formazan produced in uninfected, compound-treated cells to 50% of that produced in uninfected, compound-free cells. The therapeutic index was calculated by dividing the cytotoxicity (CC50) by the antiviral activity (EC50).
Compounds were tested in phenotypic susceptibility assays at Virologic, Inc., (See Petropoulos C. J., Parkin N. T., Limoli K. L., Lie Y. S., Wrin T., Huang W., Tian H., Smith D., Winslow G. A., Capon D J, Whitcomb J M. 2000, “A novel phenotypic drug susceptibility assay for human immunodeficiency virus type 1,” Antimicrob Agents Chemother 44(4):920-928) or using the assay described here. MT-2 cells were infected with either HIV-1 NL4-3 or HIV-1 NL4-3(I84V/L90M) and incubated in the presence of serial 0.5 log dilutions of test compounds. Three days later, culture supernatants were collected and virus production, as determined by p24 ELISA, was assayed. Percent inhibition was calculated as p24 concentration in compound-treated samples as compared to infected, compound-free controls. Inhibition of viral replication is determined by measuring reduction in HIV p24 present in the culture supernatant, using a Beckman-Coulter p24 HIV-1 Ag EIA kit and following the supplied protocol. Absorbance is read on a MRX microplate reader (Dynex Technologies). The EC50 was calculated as the concentration of compound that effected a decrease in the p24 production by infected, compound-treated cells to 50% of that produced by infected, compound-free cells.

[3] = Human immunodeficiency virus 1, T-cell, read-out: EC50 (wt) (nm), wt virus
[4] = Human immunodeficiency virus 1, T-cell, read-out: Ave. EC50, average, unit inferred

SMILES	pKi ([1]; read-out: Ki (nm))	pEC50 [2, 3]	pKi ([1]; average, read-out: Ave. Ki)	pEC50 [2, 4]	pEC50 ([2]; read-out: EC50 (wt) (nm), wt virus)
C=CCNC(=O)[C@H]1N(C(=O)[C@@H](O)[C@H](Cc2cccc(F)c2)NC(=O)c2cc(C)cc(O)c2C)CC(F)(F)C1(C)C	> 10.00	7.60	–	–	–
Cc1cc(O)c(C)c(C(=O)N[C@@H](Cc2cccc(F)c2)[C@H](O)C(=O)N2CC(F)(F)C(C)(C)[C@H]2C(=O)NCc2ccccc2F)c1	> 10.00	8.17	–	–	–
Cc1cc(O)c(C)c(C(=O)N[C@@H](Cc2ccccc2)[C@H](O)C(=O)N2CC(F)(F)C(C)(C)[C@H]2C(=O)NCC(F)(F)F)c1 [drawing 119]	> 10.00	7.74	–	–	–
Cc1cc(O)c(C)c(C(=O)N[C@@H](Cc2ccccc2)[C@H](O)C(=O)N2CC(F)(F)C(C)(C)[C@H]2C(=O)NCC(F)(F)F)c1 [Example D16, (S)-4,4-Difluoro-1-[(2S,3S)-2-hydroxy-3-(3-hydroxy-2,5-dimethyl-benzoylamino)-4-phenyl-butyryl]-3,3-dimethyl-pyrrolidine-2-carboxylic acid (2,2,2-trifluoro-ethyl)-amide]	–	–	> 10.00	7.74	–
Cc1c(O)cccc1C(=O)N[C@@H](Cc1cccc(F)c1)[C@H](O)C(=O)N1CC(F)(F)C(C)(C)[C@H]1C(=O)NCC(C)(C)C [drawing 137]	> 10.00	–	–	–	8.06
CCC(C)NC(=O)C1N(C(=O)C(O)C(Cc2ccccc2)NC(=O)c2cc(C)cc(O)c2C)CC(F)(F)C1(C)C (stereo not drawn)	> 10.00	7.80	–	–	–
C=CCNC(=O)C1N(C(=O)[C@@H](O)[C@H](Cc2cccc(F)c2)NC(=O)c2cccc(O)c2C)CC(F)(F)C1(C)C (stereo partly drawn) [drawing 101]	> 10.00	7.80	–	–	–
Cc1cc(O)c(C)c(C(=O)N[C@@H](Cc2ccccc2)[C@H](O)C(=O)N2CC(F)(F)C(C)(C)[C@H]2C(=O)NCC(C)C)c1 [Example D15, (S)-4,4-Difluoro-1-1-[(2S,3S)-2-hydroxy-3-(3-hydroxy-2,5-dimethyl-benzoylamino)-4-phenyl-butyryl]-3,3-dimethyl-pyrrolidine-2-carboxylic acid isobutyl-amide]	–	–	–	7.96	–
CC[C@H](C)CNC(=O)[C@H]1N(C(=O)[C@@H](O)[C@H](Cc2ccccc2)NC(=O)c2cccc(O)c2C)CC(F)(F)C1(C)C [Example D18, (S)-4,4-Difluoro-1-[(2S,3S)-2-hydroxy-3-(3-hydroxy-2-methyl-benzoylamino)-4-phenyl-butyryl]-3,3-dimethyl-pyrrolidine-2-carboxylic acid ((2S)-2-methyl-butyl)-amide]	–	–	> 10.00	8.00	–
Cc1ccc(O)c(C)c1C(=O)N[C@@H](Cc1ccccc1)[C@H](O)C(=O)N1CC(F)(F)C(C)(C)[C@H]1C(=O)NCC(C)C	> 10.00	7.36	–	–	–
Cc1c(O)cccc1C(=O)N[C@@H](Cc1cccc(F)c1)[C@H](O)C(=O)N1CC(F)(F)C(C)(C)[C@H]1C(=O)NCC(C)(C)C [drawing 136]	> 10.00	7.89	–	–	–
CCCCNC(=O)[C@H]1N(C(=O)[C@@H](O)[C@H](Cc2ccccc2)NC(=O)c2cc(C)cc(O)c2C)CC(F)(F)C1(C)C	> 10.00	7.64	–	–	–
CCNC(=O)[C@H]1N(C(=O)[C@@H](O)[C@H](Cc2ccccc2)NC(=O)c2cc(C)cc(O)c2C)CC(F)(F)C1(C)C [Example D17, (S)-4,4-Difluoro-1-[(2S,3S)-2-hydroxy-3-(3-hydroxy-2,5-dimethyl-benzoylamino)-4-phenyl-butyryl]-3,3-dimethyl-pyrrolidine-2-carboxylic acid ethylamide]	–	–	> 10.00	7.18	–
Cc1ccccc1CNC(=O)[C@H]1N(C(=O)[C@@H](O)[C@H](Cc2cccc(F)c2)NC(=O)c2cccc(O)c2C)CC(F)(F)C1(C)C	> 10.00	7.77	–	–	–
Cc1c(O)cccc1C(=O)N[C@@H](Cc1cccc(F)c1)[C@H](O)C(=O)N1CC(F)(F)C(C)[C@H]1C(=O)NCC(F)(F)F (stereo partly drawn)	> 10.00	8.00	–	–	–
C=CCNC(=O)[C@H]1N(C(=O)[C@@H](O)[C@H](Cc2cccc(C(F)(F)F)c2)NC(=O)c2cccc(O)c2C)CC(F)(F)C1(C)C	> 10.00	7.38	–	–	–
C=CCNC(=O)[C@H]1N(C(=O)[C@@H](O)[C@H](Cc2ccccc2)NC(=O)c2cccc(O)c2C)CC(O)C1(C)C (stereo partly drawn)	8.44	6.33	–	–	–
CCNC(=O)[C@H]1N(C(=O)[C@@H](O)[C@H](Cc2ccccc2)NC(=O)c2cc(C)cc(O)c2C)CC(F)(F)C1(C)C [drawing 141]	> 10.00	7.43	–	–	–
Cc1cc(O)c(C)c(C(=O)N[C@@H](Cc2ccccc2)[C@H](O)C(=O)N2CC(C)(O)C(C)(C)[C@H]2C(=O)NCc2ccccc2C)c1 (stereo partly drawn)	> 10.00	7.92	–	–	–
Cc1c(O)cccc1C(=O)N[C@@H](Cc1ccccc1)[C@H](O)C(=O)N1COC(C)(C)[C@H]1C(=O)NC1CCc2ccccc21 (stereo partly drawn)	> 10.00	7.48	–	–	–
Cc1c(O)cccc1C(=O)N[C@@H](Cc1cccc(F)c1)[C@H](O)C(=O)N1CC(F)(F)C(C)(C)[C@H]1C(=O)NCC(C)C [Example D11, (S)-4,4-Difluoro-1-[(2S,3S)-4-(3-fluoro-phenyl)-2-hydroxy-3-(3-hydroxy-2-methyl-benzoylamino)-butyryl]-3,3-dimethyl-pyrrolidine-2-carboxylic acid isobutyl-amide]	–	–	> 10.00	7.89	–
Cc1c(O)cccc1C(=O)N[C@@H](Cc1ccccc1)[C@H](O)C(=O)N1CC(F)(F)C(C)(C)[C@H]1C(=O)NCc1ccncc1	> 10.00	6.89	–	–	–
CC[C@@H](COC)NC(=O)[C@H]1N(C(=O)[C@@H](O)[C@H](Cc2ccccc2)NC(=O)c2cc(C)cc(O)c2C)CC(F)(F)C1(C)C	> 10.00	7.52	–	–	–
CC[C@H](C)CNC(=O)[C@H]1N(C(=O)[C@@H](O)[C@H](Cc2ccccc2)NC(=O)c2cccc(O)c2C)CC(F)(F)C1(C)C [drawing 143]	> 10.00	7.96	–	–	–
Cc1cc(O)c(C)c(C(=O)N[C@@H](Cc2ccccc2)[C@H](O)C(=O)N2CC(F)(F)C(C)(C)[C@H]2C(=O)NCc2ccncc2)c1	9.59	6.96	–	–	–
CC[C@H](C)CNC(=O)[C@H]1N(C(=O)[C@@H](O)[C@H](Cc2ccccc2)NC(=O)c2cc(C)cc(O)c2C)CC(F)(F)C1(C)C	> 10.00	8.12	–	–	–
Cc1cc(O)c(C)c(C(=O)N[C@@H](Cc2cccc(F)c2)[C@H](O)C(=O)N2CC(F)(F)C(C)(C)[C@H]2C(=O)NCC(F)(F)F)c1	> 10.00	7.85	–	–	–
CCCNC(=O)[C@H]1N(C(=O)[C@@H](O)[C@H](Cc2ccccc2)NC(=O)c2cc(C)cc(O)c2C)CC(F)(F)C1(C)C [Example D14, (S)-4,4-Difluoro-1-1-[(2S,3S)-2-hydroxy-3-(3-hydroxy-2,5-dimethyl-benzoylamino)-4-phenyl-butyryl]-3,3-dimethyl-pyrrolidine-2-carboxylic acid propylamide]	–	–	–	8.05	–
